In patent publication US20230277553A1, “THERAPEUTIC COMPOSITION OF CURE-PRO COMPOUNDS FOR TARGETED DEGRADATION OF BET DOMAIN PROTEINS, AND METHODS OF MAKING AND USAGE” (CORNELL UNIVERSITY, priority 2020, published 2023):
Entries after “also recorded” stand apart in the source; their conditions may differ.

What was measured:
BRD4 [1] = target: T1, BRD4 (Homo sapiens, UniProt O60885); assay: Summary of BRD4 degradation by CURE-PRO pairs, estimated from Western Blot or WES (Proteinsimple); format: cell-based; design: endogenous in cells; settings: for Degradation of BRD4 in combination with CRBN ligand [drawing 372]: third drawing (8066); for Degradation of BRD4 in combination with CRBN ligand [drawing 370]: aromatic 1,2-diol- or hindered cis-1,2-diol-containing CRBN ligand, first drawing (8046)
Description: A black check mark indicates efficacy of 30% to 70% or higher protein degradation.

MV-4-11 cells = assay: CellTiter-Glo cell viability, MV-4-11 cells; format: cell-based; settings: for Loss of cellular viability / toxicity, cotreated with cereblon ligands 8046, 8047 and 8066 vs monomers alone: MV-4-11, 72 hours, 1:1, 10 nM-100 μM each
Protocol: CellTiter-Glo® 2.0 Cell Viability Assay (Promega) was carried out following the manufacturer's recommendations. Cells were seeded at a density of 1000 cells/well in a white 96 well plates (Corning, #3917) in a total volume of 100 μl with respective monomers, combinations of BRD ligands together with E3 ligase ligands or vehicle control treatment. After a 72 h incubation, 100 ul of the CellTiter-Glo® substrate was added per well and luminescence was read on a Spectramax M5 (Molecular Devices). Dose-response curves were generated using Graphpad Prism software.
MV-4-11 cells (5×104) were treated for 24 hours with the sample compounds solubilized in DMSO. The compounds were added at 1 nM-100 μM each. Cellular viability was determined using the CellTiter-Glo® Luminescent Cell Viability Assay (Promega) described above. FIGS. 19-22 depict the CURE-PRO-mediated loss of cellular viability for BRD monomers (JQ1 derivatives comprising of catechol linkers), and CRBN ligand, 8049 (pomalidomide derivatives comprising boronic acid linkers) combined in a 1:1 ratio.
MV-4-11 cells (1×104) were treated for 72 hours with the compounds solubilized in DMSO. Compounds were added at 10 nM-100 μM each. Cellular viability was determined using the CellTiter-Glo® Luminescent Cell Viability Assay (Promega) described above. FIGS. 47-54 depict the CURE-PRO-mediated loss of cellular viability for BRD monomers (JQ1 derivatives comprising of boronic acid linkers), and CRBN ligands, 8046, 8047 and 8066 (pomalidomide derivatives comprising diol linkers) combined in a 1:1 ratio.

SLC19A1 = assay: Suppression of c-MYC downstream target gene SLC19A1, RT-PCR (Cells-to-Ct), HeLa cells; format: cell-based, Human; settings: 24 h, 10 μM
Protocol: The suppression of the expression of the downstream c-MYC target, SLC19A1, was measured by RT-PCR using Power SYBR© Green Cells-to-Ct™ Kit (Life Technologies). Adherent cells were plated on 96 well plates at 5,000 cells per well were treated for 24h with monomer compounds and compounds capable of reversible interactions (1 nM-100 μM). Cells were subsequently washed in ice-cold PBS processed according to the manufacturer's instructions. Quantitative real-time PCR was performed using a ViiA™ 7 Real-time PCR System (Applied Biosystems, Foster City, Calif., USA). GAPDH and ACTB served as internal controls. The primers used were (5′-3′): GAPDH-F: AGCCACATCGCTCAGACAC (SEQ ID NO:9), GAPDH-R: GCCCAATACGACCAAATCC (SEQ ID NO:10), ACTB —F: CCAACCGCGAGAAGATGA (SEQ ID NO: 11), ACTB -R: […] (SEQ ID NO: 12), SLC19A1-F: […] (SEQ ID NO:13), SLC19A1-R: […] (SEQ ID NO: 14).
HeLa cells (1×104) were treated for 24 hours in 96 well plates with the compounds solubilized in DMSO. Compounds were added at 10 μM each and RNA expression measured by the Cells-to Ct method described above (Thermofisher). CURE-PRO-mediated suppression of the downstream target gene of c-MYC, SLC19A1, after BRD4 degradation was evident in cells treated with the combination of BRD-N25 and 8310 or 8312 (FIG. 66) and BRD-N39 and 8310 and 8312 (FIG. 67) as indicated by a rightward shift in the curve and in increase in the Ct values.

BRD4 [2] = target: T1, BRD4; assay: CURE-PRO-mediated BRD4 degradation, Western blot, HeLa cells; format: cell-based; design: endogenous in cells; host or cells: HeLa; settings: for BRD4 degradation, co-treatment with CRBN ligand 8046: 1:1 with 8046, 10 μM each; for BRD4 degradation, co-treatment with CRBN ligand 8066: 1:1 with 8066, 10 μM each (BRD-E10: 10 and 100 μM); for BRD4 degradation, co-treatment with CRBN ligand 8047: 1:1 with 8047, 10 μM each
In short: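 HeLa cells treated 24 h with compounds in DMSO (1-10 μM, 10 μM or 100 μM each; paired monomers combined 1:1), optional 15-min pretreatment with pomalidomide, VHL298, Nutlin3a (10 μM) or MG-132/carfilzomib (1 μM). RIPA lysates, 10-20 μg protein immunoblotted for BRD4 with β-actin, ECL detection.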

SMILES: CCNC(=O)C[C@@H]1N=C(c2ccc(Cl)cc2)c2cc(OCCCCCCCNC(=O)c3ccc(B(O)O)cc3)ccc2-n2c(C)nnc21 [BRD-E78]
- Degradation of BRD4 in combination with VHL ligand [drawing 397] (BRD4 [1]; Table 3, aromatic 1,2-diol-containing VHL ligand, second drawing (8305)): ✓ (A black check mark indicates efficacy of 30% to 70% or higher protein degradation)
- Loss of cellular viability / toxicity, cotreated with cereblon ligands 8046, 8047 and 8066 vs monomers alone (MV-4-11 cells): reduced viability; also recorded: increased toxicity

SMILES: Cc1sc2c(c1C)C(c1ccc(Cl)cc1)=N[C@@H](CC(=O)Nc1ccc(OCCOCCOCCOCCNc3cccc4c3C(=O)N(C3CCC(=O)NC3=O)C4=O)cc1)c1nnc(C)n1-2 (stereo partly drawn) [ARV-825, reference compound]
- Suppression of SLC19A1 expression, single compound (SLC19A1): Complete suppression of SLC19A1 was evident; also recorded: completely suppressed

SMILES: COc1ccc2c(c1)C(c1ccc(Cl)cc1)=N[C@@H](CC(=O)NCCOCCOCCNC(=O)c1cccc(B(O)O)c1)c1nnc(C)n1-2 [BRD-E46]
- Degradation of BRD4 in combination with CRBN ligand [drawing 372] (BRD4 [1]; Table 1, CRBN ligand): ✓ (A black check mark indicates efficacy of 30% to 70% or higher protein degradation)
- Degradation of BRD4 in combination with CRBN ligand [drawing 370] (BRD4 [1]; Table 1): ✓ (A black check mark indicates efficacy of 30% to 70% or higher protein degradation)
- Loss of cellular viability / toxicity, cotreated with cereblon ligands 8046, 8047 and 8066 vs monomers alone (MV-4-11 cells): reduced viability; also recorded: increased toxicity
- BRD4 degradation, co-treatment with CRBN ligand 8046 (BRD4 [2]; 24 h, Western blot): causes degradation of BRD4; also recorded: Degradation is noted
- BRD4 degradation, co-treatment with CRBN ligand 8066 (BRD4 [2]; 24 h, Western blot): causes degradation of BRD4; also recorded: Degradation is noted

SMILES: COc1ccc2c(c1)C(c1ccc(Cl)cc1)=N[C@@H](CC(=O)NCCNC(=O)/C=C/c1ccc(B(O)O)cc1)c1nnc(C)n1-2 [BRD-E29, (4-((E)-3-((2-(2-((4S)-6-(4-chlorophenyl)-8-methoxy-1-methyl-4H-benzo[f][1,2,4]triazolo[4,3-a][1,4]diazepin-4-yl)acetamido)ethyl)amino)-3-oxoprop-1-en-1-yl)phenyl)boronic acid]
- Degradation of BRD4 in combination with CRBN ligand [drawing 371] (BRD4 [1]; Table 1, CRBN ligand, second drawing (8047)): ✓ (A black check mark indicates efficacy of 30% to 70% or higher protein degradation)
- Degradation of BRD4 in combination with CRBN ligand [drawing 372] (BRD4 [1]; Table 1, CRBN ligand): ✓ (A black check mark indicates efficacy of 30% to 70% or higher protein degradation)
- Degradation of BRD4 in combination with CRBN ligand [drawing 370] (BRD4 [1]; Table 1): ✓ (A black check mark indicates efficacy of 30% to 70% or higher protein degradation)
- Loss of cellular viability / toxicity, cotreated with cereblon ligands 8046, 8047 and 8066 vs monomers alone (MV-4-11 cells): reduced viability; also recorded: increased toxicity
- BRD4 degradation, co-treatment with CRBN ligand 8046 (BRD4 [2]; 24 h, Western blot): causes degradation of BRD4; also recorded: Degradation is noted
- BRD4 degradation, co-treatment with CRBN ligand 8047 (BRD4 [2]; 24 h, Western blot): causes degradation of BRD4; also recorded: Degradation is noted
- BRD4 degradation, co-treatment with CRBN ligand 8066 (BRD4 [2]; 24 h, Western blot): causes degradation of BRD4; also recorded: Degradation is noted

SMILES: Nc1cccc2c1C(=O)N(C1CCC(=O)NC1=O)C2=O (stereo not drawn) [pomalidomide, reference compound]
- Suppression of SLC19A1 expression, single compound (SLC19A1): no suppression
- Inhibition of CURE-PRO-mediated BRD4 degradation (BRD-E52 or BRD-E72 with 8047) by preincubation (BRD4 [2]; 15 min preincubation, equimolar (10 μM)): competitively inhibited; also recorded: inhibition of CURE-PRO-mediated BRD4 degradation

SMILES: CCNC(=O)C[C@@H]1N=C(c2ccc(Cl)cc2)c2cc(Sc3cccc(B(O)O)c3)ccc2-n2c(C)nnc21 [BRD-E76]
- Degradation of BRD4 in combination with CRBN ligand [drawing 370] (BRD4 [1]; Table 1): ✓ (A black check mark indicates efficacy of 30% to 70% or higher protein degradation)
- Loss of cellular viability / toxicity, cotreated with cereblon ligands 8046, 8047 and 8066 vs monomers alone (MV-4-11 cells): reduced viability; also recorded: increased toxicity
- BRD4 degradation, co-treatment with CRBN ligand 8046 (BRD4 [2]; 24 h, Western blot): causes degradation of BRD4
- BRD4 degradation, co-treatment with CRBN ligand 8047 (BRD4 [2]; 24 h, Western blot): causes degradation of BRD4

SMILES: COc1ccc2c(c1)C(c1ccc(Cl)cc1)=N[C@@H](CC(=O)NCCc1ccc(O)c(O)c1)c1nnc(C)n1-2 [BRD-N10, (S)-2-(6-(4-chlorophenyl)-8-methoxy-1-methyl-4H-benzo[f][1,2,4]triazolo[4,3-a][1,4]diazepin-4-yl)-N-(3,4-dihydroxyphenethyl)acetamide]
- Degradation of BRD4 in combination with CRBN ligand [drawing 407] (BRD4 [1]; Table 4, aryl-boronic acid-containing CRBN ligand, first drawing (by text: 8048)): ✓ (A black check mark indicates efficacy of 30% to 70% or higher protein degradation)
- Degradation of BRD4 in combination with CRBN ligand [drawing 408] (BRD4 [1]; Table 4, aryl-boronic acid-containing CRBN ligand, second drawing (by text: 8049)): ✓ (A black check mark indicates efficacy of 30% to 70% or higher protein degradation)
- Degradation of BRD4 in combination with MDM2 ligand [drawing 423] (BRD4 [1]; Table 5, aryl-boronic acid-containing MDM2 ligand, first drawing (8310)): ✓ (A black check mark indicates efficacy of 30% to 70% or higher protein degradation)
- Loss of cellular viability / toxicity, co-dosed with CRBN ligand 8049 (MV-4-11 cells; MV-4-11, 24 hours, 1:1 with 8049, 1 nM-100 μM each): concentration-dependent loss in cellular viability; also recorded: increased toxicity
- BRD4 degradation, co-treatment with CRBN ligand 8048 (BRD4 [2]; 24 h, 1:1 with 8048, 1-10 μM each, Western blot): causes degradation of BRD4; also recorded: capable of degrading BRD4
- BRD4 degradation, BRD ligand alone (BRD4 [2]; 24 h, BRD monomer alone, Western blot): no degradation of BRD4
